Laboratory results published in BindingDB's records for doi:10.1021/jm00037a006 (Abbott Laboratories, 1994).
Square brackets hold non-standard residues; d marks the D form. Peptide text beside a SMILES is read from it. * marks the point of attachment. Acryloyl(3-(3-pyridyl),E) = O=C(/C=C/c1cccnc1)*; NMeF = CN[C@@H](Cc1ccccc1)C(=O)O; NMeD = CN[C@@H](CC(=O)O)C(=O)O; Boc = CC(C)(C)OC(=O)*

Target: Gastrin/cholecystokinin type B receptor (Cavia porcellus)
Assay: In vitro binding for half maximal inhibition of [125I]- cholecystokinin type B receptor in guinea pig cortex

## CN(C(=O)[C@H](CCCCNC(=O)/C=C/c1cccnc1)NC(=O)[C@H](Cc1c[nH]c2ccccc12)NC(=O)OC(C)(C)C)[C@@H](CC(=O)O)C(=O)N(C)[C@@H](Cc1ccccc1)C(N)=O [(S)-3-{[(S)-2-[2-tert-Butoxycarbonylamino-3-(1H-indol-3-yl)-propionylamino]-6-((E)-3-pyridin-3-yl-acryloylamino)-hexanoyl]-methyl-amino}-N-((S)-1-carbamoyl-2-phenyl-ethyl)-N-methyl-succinamic acid] (Boc-WK(Acryloyl(3-(3-pyridyl),E))[NMeD][NMeF]-NH2)
  IC50: 22.7 µM
